Measured values taken from article PMC10507085, “Pharmacological inhibition of TBK1/IKKε blunts immunopathology in a murine model of SARS-CoV-2 infection” (Nature Communications, 2023).

Key:
[1] = target: T1, DRAK1 (Homo sapiens, UniProt Q9UEE5); experiment: biochemical; design: KINOMEscan competition binding, DNA-tagged kinase against immobilised ligand, qPCR read-out; conditions: read-out: Percent Control
T1 construct: gene STK17A
T1 sequence (Q9UEE5 1-414): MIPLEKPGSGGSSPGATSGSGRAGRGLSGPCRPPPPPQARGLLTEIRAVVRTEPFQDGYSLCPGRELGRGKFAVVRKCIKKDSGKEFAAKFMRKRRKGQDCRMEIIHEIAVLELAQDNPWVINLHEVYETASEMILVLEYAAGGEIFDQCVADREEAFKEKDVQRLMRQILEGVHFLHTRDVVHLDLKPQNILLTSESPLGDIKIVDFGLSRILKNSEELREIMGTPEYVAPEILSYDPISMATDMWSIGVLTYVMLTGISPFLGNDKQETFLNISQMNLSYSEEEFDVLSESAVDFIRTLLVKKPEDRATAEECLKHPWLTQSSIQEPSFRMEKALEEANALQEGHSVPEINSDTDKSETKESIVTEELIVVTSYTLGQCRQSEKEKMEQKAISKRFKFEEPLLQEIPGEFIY

[2] = target: T1, DRAK1; experiment: biochemical; design: KINOMEscan competition binding, DNA-tagged kinase against immobilised ligand, qPCR read-out
[3] = target: T2, PIM2 (Homo sapiens, UniProt Q9P1W9); experiment: biochemical; design: KINOMEscan competition binding, DNA-tagged kinase against immobilised ligand, qPCR read-out; conditions: read-out: Percent Control
T2 sequence (Q9P1W9 whole entry): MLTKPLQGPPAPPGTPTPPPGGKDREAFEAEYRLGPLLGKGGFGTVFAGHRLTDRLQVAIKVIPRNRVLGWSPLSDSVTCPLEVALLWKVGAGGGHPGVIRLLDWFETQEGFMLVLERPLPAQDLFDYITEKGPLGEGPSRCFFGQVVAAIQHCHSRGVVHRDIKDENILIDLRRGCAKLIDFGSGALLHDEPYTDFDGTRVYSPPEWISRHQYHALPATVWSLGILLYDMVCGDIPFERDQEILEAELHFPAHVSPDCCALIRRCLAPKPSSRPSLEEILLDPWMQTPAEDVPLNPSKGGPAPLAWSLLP

[4] = target: T3, TBK1 (TANK-binding kinase 1) (Homo sapiens, UniProt Q9UHD2); experiment: surface plasmon resonance (Biacore T200, steady-state affinity)
T3 construct: full-length human TBK1, expressed in Sf9, His tag removed by TEV
T3 sequence (Q9UHD2 whole entry): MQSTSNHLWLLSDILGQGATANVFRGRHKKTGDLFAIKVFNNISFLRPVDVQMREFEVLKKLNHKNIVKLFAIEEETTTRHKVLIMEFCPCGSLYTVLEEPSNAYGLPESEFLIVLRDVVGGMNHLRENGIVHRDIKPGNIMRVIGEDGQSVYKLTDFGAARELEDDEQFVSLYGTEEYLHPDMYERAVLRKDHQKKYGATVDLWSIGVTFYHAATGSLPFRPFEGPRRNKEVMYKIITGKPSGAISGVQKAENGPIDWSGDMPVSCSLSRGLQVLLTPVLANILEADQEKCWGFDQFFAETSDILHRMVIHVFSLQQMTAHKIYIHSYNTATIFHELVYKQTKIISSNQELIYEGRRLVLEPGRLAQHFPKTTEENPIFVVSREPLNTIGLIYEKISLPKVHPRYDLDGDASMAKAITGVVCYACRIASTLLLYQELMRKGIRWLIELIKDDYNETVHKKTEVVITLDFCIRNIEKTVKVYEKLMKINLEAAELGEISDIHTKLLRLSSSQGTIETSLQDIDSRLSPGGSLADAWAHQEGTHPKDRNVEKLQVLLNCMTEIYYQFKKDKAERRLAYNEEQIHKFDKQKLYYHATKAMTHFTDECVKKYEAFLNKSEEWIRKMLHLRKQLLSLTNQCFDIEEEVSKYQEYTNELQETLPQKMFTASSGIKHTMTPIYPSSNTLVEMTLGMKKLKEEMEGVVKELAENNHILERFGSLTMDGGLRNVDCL

[5] = target: T2, PIM2; experiment: KINOMEscan competition binding ([…] kinases, […] IDX)
[6] = target: T1, DRAK1; experiment: KINOMEscan competition binding ([…] kinases, […] IDX)
[7] = target: MATK (Homo sapiens, UniProt P42679); experiment: biochemical; design: KINOMEscan competition binding, DNA-tagged kinase against immobilised ligand, qPCR read-out; conditions: read-out: Percent Control
MATK, sequence (P42679 whole entry): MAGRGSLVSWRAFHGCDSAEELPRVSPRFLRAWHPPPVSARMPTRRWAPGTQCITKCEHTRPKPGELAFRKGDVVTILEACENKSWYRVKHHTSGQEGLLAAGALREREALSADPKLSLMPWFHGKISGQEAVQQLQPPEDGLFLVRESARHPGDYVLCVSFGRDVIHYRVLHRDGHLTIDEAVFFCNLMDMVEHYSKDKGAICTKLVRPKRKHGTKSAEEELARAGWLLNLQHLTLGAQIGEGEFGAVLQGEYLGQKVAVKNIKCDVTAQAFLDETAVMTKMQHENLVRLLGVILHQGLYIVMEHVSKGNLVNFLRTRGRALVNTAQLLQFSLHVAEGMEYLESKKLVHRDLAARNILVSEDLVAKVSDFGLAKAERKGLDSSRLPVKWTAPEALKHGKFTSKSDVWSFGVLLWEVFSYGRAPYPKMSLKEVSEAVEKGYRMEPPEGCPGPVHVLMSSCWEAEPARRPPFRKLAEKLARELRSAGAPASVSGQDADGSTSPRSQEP
Method: (§1) The KINOMEscan^TM kinase assays[65] were performed by Eurofins DiscoverX Corporation. For each kinase, the assay relies on the ability of the tested compound to compete against an immobilised ligand for binding to the DNA-tagged kinase. RT-qPCR is then used to measure the quantity of kinase molecules bound to the immobilised ligand, which is decreased if the tested compound competed with the kinase-ligand interaction. An 11-point 3-fold serial dilution of IDX compound was prepared in 100% DMSO at 100× final test concentration and subsequently diluted to 1× in the assay. […]

[8] = target: T4, RSK1(Kin.Dom.1-N-terminal) (Homo sapiens, UniProt Q15418); experiment: biochemical; design: KINOMEscan competition binding, DNA-tagged kinase against immobilised ligand, qPCR read-out; conditions: read-out: Percent Control
T4 construct: gene RPS6KA1; Kin.Dom.1 N-terminal
T4 sequence (Q15418 whole entry): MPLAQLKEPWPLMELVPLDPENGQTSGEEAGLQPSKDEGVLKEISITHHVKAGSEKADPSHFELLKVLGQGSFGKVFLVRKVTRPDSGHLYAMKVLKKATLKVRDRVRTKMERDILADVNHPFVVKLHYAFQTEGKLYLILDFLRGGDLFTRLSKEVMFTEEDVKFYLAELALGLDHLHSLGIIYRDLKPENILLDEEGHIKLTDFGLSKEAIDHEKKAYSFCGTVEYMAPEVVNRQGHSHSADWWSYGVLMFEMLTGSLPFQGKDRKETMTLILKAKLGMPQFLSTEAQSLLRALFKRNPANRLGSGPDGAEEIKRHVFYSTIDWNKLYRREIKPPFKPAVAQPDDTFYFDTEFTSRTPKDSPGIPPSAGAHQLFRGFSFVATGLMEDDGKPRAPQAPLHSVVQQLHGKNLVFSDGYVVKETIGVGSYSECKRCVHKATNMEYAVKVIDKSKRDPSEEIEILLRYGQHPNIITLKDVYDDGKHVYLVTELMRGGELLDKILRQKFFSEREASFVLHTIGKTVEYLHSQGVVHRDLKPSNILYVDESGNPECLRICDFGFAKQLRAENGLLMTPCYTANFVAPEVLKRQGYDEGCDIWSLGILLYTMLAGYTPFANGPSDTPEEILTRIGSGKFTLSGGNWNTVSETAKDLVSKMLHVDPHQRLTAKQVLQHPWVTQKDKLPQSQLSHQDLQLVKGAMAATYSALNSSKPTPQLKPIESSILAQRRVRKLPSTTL
Method: as §1

[9] = target: CDK4-cyclinD3 (Homo sapiens, UniProt P11802); experiment: biochemical; design: KINOMEscan competition binding, DNA-tagged kinase against immobilised ligand, qPCR read-out; conditions: read-out: Percent Control
Method: as §1

[10] = target: MAPK4 (Homo sapiens, UniProt P31152); experiment: biochemical; design: KINOMEscan competition binding, DNA-tagged kinase against immobilised ligand, qPCR read-out; conditions: read-out: Percent Control
MAPK4, sequence (P31152 whole entry): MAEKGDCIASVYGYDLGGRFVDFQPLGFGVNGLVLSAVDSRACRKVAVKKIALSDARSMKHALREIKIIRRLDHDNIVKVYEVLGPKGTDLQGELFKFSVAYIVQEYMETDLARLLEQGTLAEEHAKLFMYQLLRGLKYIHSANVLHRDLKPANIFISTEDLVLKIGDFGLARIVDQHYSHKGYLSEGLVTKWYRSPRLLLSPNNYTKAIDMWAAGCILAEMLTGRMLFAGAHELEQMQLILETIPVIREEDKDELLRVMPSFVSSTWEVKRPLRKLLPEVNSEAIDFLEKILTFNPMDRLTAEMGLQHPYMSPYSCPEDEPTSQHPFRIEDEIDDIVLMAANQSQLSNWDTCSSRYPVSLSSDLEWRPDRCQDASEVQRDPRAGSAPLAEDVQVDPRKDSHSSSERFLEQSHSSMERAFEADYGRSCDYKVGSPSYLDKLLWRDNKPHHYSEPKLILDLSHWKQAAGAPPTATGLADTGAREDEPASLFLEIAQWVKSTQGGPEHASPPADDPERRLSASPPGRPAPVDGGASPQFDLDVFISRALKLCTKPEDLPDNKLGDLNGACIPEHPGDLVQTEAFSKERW
Method: as §1

[11] = target: PIK3C2B (Homo sapiens, UniProt O00750); experiment: biochemical; design: KINOMEscan competition binding, DNA-tagged kinase against immobilised ligand, qPCR read-out; conditions: read-out: Percent Control
Method: as §1

[12] = target: PTK6 (Homo sapiens, UniProt Q13882); experiment: biochemical; design: KINOMEscan competition binding, DNA-tagged kinase against immobilised ligand, qPCR read-out; conditions: read-out: Percent Control
Method: as §1

[13] = target: CSNK1A1 (Homo sapiens, UniProt P48729); experiment: biochemical; design: KINOMEscan competition binding, DNA-tagged kinase against immobilised ligand, qPCR read-out; conditions: read-out: Percent Control
CSNK1A1, sequence (P48729 whole entry): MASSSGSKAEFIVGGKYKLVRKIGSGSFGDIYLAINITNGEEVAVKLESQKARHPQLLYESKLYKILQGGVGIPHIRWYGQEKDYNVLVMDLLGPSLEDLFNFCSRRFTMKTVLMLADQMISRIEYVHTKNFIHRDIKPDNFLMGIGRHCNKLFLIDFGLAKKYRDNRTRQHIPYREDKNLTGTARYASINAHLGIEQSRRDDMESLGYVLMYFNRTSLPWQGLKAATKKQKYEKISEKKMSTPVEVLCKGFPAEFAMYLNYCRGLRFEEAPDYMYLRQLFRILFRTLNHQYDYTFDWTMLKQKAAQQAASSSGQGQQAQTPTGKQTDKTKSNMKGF
Method: as §1

[14] = target: T5, ZAK (Homo sapiens, UniProt Q9NYL2); experiment: biochemical; design: KINOMEscan competition binding, DNA-tagged kinase against immobilised ligand, qPCR read-out; conditions: read-out: Percent Control
T5 construct: gene MAP3K20
T5 sequence (Q9NYL2 whole entry): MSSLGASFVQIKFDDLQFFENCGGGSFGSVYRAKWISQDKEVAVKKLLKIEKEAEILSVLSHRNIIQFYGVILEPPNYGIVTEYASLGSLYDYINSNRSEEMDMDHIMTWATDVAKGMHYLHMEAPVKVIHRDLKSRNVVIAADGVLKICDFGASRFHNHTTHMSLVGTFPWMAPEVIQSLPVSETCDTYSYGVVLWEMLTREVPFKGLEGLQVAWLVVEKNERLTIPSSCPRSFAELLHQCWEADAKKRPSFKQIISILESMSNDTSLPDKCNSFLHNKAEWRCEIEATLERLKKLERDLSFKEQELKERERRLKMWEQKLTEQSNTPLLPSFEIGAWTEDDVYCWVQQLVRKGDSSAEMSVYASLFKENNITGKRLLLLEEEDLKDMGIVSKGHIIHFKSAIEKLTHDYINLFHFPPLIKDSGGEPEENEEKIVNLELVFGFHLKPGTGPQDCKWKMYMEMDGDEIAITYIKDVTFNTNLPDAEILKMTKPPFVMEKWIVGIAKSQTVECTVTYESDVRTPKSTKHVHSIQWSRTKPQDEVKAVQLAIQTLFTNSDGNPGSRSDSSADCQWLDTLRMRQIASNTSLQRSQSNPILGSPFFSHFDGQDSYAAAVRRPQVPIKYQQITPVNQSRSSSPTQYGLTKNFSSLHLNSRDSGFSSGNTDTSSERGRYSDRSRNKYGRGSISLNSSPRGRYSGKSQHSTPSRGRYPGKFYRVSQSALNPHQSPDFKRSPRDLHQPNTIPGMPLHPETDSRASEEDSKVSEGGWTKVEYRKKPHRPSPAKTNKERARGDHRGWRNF
Method: as §1

[15] = target: EPHA5 (Homo sapiens, UniProt P54756); experiment: biochemical; design: KINOMEscan competition binding, DNA-tagged kinase against immobilised ligand, qPCR read-out; conditions: read-out: Percent Control
Method: as §1

[16] = target: PKNB(M.tuberculosis) (Mycobacterium tuberculosis, UniProt P9WI81); experiment: biochemical; design: KINOMEscan competition binding, DNA-tagged kinase against immobilised ligand, qPCR read-out; conditions: read-out: Percent Control
PKNB(M.tuberculosis), sequence (P9WI81 whole entry): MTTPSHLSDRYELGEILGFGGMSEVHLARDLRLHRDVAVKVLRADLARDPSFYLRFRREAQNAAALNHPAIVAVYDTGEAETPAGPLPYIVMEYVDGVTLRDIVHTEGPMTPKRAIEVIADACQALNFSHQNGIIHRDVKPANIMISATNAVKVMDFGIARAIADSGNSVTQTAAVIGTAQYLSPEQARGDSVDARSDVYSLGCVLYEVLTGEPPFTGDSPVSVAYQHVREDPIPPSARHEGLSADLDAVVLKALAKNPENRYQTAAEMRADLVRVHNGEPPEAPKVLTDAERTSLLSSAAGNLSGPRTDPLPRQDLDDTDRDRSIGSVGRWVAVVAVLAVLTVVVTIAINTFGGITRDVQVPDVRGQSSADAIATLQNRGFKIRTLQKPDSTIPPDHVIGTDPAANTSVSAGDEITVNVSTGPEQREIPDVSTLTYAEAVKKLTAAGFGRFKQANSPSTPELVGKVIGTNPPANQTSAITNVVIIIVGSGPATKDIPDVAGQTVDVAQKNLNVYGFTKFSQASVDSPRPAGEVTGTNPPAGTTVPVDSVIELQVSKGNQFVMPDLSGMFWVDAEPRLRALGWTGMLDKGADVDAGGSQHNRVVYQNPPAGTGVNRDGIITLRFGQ

[17] = target: T2, PIM2; experiment: biochemical; design: KINOMEscan competition binding, DNA-tagged kinase against immobilised ligand, qPCR read-out

## Oc1ccc(C2=Cc3ccc(O)cc3OC2)cc1 [compound 1, idronoxil]
[1]
  remaining binding at 10 µM: 4.3%
[2]
  Kd: 1200 nM
[3]
  remaining binding at 10 µM: 2.6%
[4]
  Kd: 39200 nM
[5]
  KINOMEscan competition binding (403 kinases, 10 μM IDX): broadly a poor kinase inhibitor, only binding its top two targets (PIM2 and DRAK1) in the micromolar range
[6]
  KINOMEscan competition binding (403 kinases, 10 μM IDX): broadly a poor kinase inhibitor, only binding its top two targets (PIM2 and DRAK1) in the micromolar range
[7]
  remaining binding at 10 µM: 61%
[8]
  remaining binding at 10 µM: 71%
[9]
  remaining binding at 10 µM: 85%
[10]
  remaining binding at 10 µM: 100%
[11]
  remaining binding at 10 µM: 83%
[12]
  remaining binding at 10 µM: 100%
[13]
  remaining binding at 10 µM: 86%
[14]
  remaining binding at 10 µM: 54%
[15]
  remaining binding at 10 µM: 97%
[16]
  remaining binding at 10 µM: 76%
[17]
  Kd: 2300 nM
